According to US20040022726A1, “Methods and compositions for intravesical therapy of bladder cancer” (priority 2002, published 2004):
Numbered stars: 1 amine (or outer) side, 2 acyl side, 3 side chain; on linkers, the order of the positions; unused ones are H or OH. Square brackets hold non-standard residues; d marks the D form. Side chains are listed from the residue outwards. Peptide text beside a SMILES is read from it. * marks the point of attachment. DOTA = O=C(O)CN1CCN(CC(=O)O)CCN(CC(=O)*)CCN(CC(=O)O)CC1; NH(2-(imidazol-4-yl)ethyl) = c1ncc(CCN*)[nH]1; Suc = O=C(CCC(=O)[*:2])[*:1]

System: superficial cancer of the urinary bladder
Details: human, in vivo
Description: Antibody-Mediated Radioimmunotherapy Using a Beta-Emitting Radionuclide A patient with a superficial cancer of the urinary bladder is treated with a 1:1 molar mixture of the bispecific antibody hMN-14×679-F(ab′)2 [anti-CEA×anti-HSG] of example 1, and the carrier-free Y-90-IMP 241 bivalent hapten of example 3, above. The premixed radioimmunotherapy agent is introduced into the bladder via a urethral catheter inserted under local anesthetic. Prior to injection, the bladder is drained completely, and 70 mL of the complex in 70 mL 0.9% NaCl (comprising 20 mg of the bispecific antibody and 10 mCi of Y-90 conjugated to the bivalent hapten) are instilled and allowed 90 minutes to localize by binding to tumor tissue. The unbound radiolabeled is bispecific antibody mixture is then allowed to evacuate the bladder through the urethra, by washing out the bladder using 50 mL 0.9% NaCl, leaving the remaining administered radioactivity bound substantially only to tumor cells. Seventy-two hours later, the patient is taken to the operating room, where biopsies of macroscopically normal urothelium and bladder tumor are made. The urothelium is separated from the underlying mucularis layer and assayed in a beta scintillating counter to allow measurement of radioactivity in the tumor and in the normal tissue, and then the preparations were fixed in formalin for histopathological evaluation. […]

## NC(=O)[C@H](CCCCNC(=O)CNC(=O)CCC(=O)NCCc1cnc[nH]1)NC(=O)[C@@H](Cc1ccc(O)cc1)NC(=O)[C@H](CCCCNC(=O)CNC(=O)CCC(=O)NCCc1cnc[nH]1)NC(=O)[C@H](Cc1ccccc1)NC(=O)CN1CCN(CC(=O)O)CCN(CC(=O)O)CCN(CC(=O)O)CC1 [Y-90-IMP 241, metal not drawn] ({DOTA}-FK([Gly-Suc-NH(2-(imidazol-4-yl)ethyl)])[dY]K([Gly-Suc-NH(2-(imidazol-4-yl)ethyl)])-NH2)
  histology of normal urothelium: relatively intact normal urothelium
